Consider four compounds from patent US7390462B2, “Ratiometric fluorescent pH sensor for non-invasive monitoring” (The University of Maryland Baltimore County, priority 2002, dated 2008).

Like-named read-outs stand apart in the source and are kept apart here.

One series is described as follows: physchem. The format is physicochemical. As for the experimental part:
Fluorescence measurements were recorded with a Varian Cary Eclipse fluorescence spectrophotometer. A solid sample/cuvette holder designed for front-face measurements was used to measure sensor patches that were fixed to the inside front wall of a PMMA disposable cuvette. Excitation light was fixed at an angle of incidence of 30°. Solutions were measured in regular 90° configuration. Cuvettes containing sensor patches were equilibrated in buffered saline solutions ranging in pH from 5 to 10. Uncorrected excitation and emission spectra were recorded for each sample. For comparison, solutions of DHDS and HPTS were also prepared and tested at the same pH values.
FIG. 3 depicts the calibration curves of excitation intensity ratio versus pH for DHDS solution, HPTS solution and the immobilized HPDS. Sensors comprising HDPS-PEG layers were calibrated in buffered saline solutions that ranged in pH from 5 to 10. In each case, the appropriate buffering species, i.e., phosphate, tris or bicarbonate, was at 10 mM and the desired ionic strength, e.g., 20, 150 or 300 mM, was made up with sodium chloride salt. Cuvettes containing sensor patches were equilibrated in each solution. For comparison 1 μM solutions of DHDS and HPTS also were prepared and tested over the same pH range.
Calibration curves for HPTS and MA-HPDS were fit to the following expression (25) describing intensity ratio (R) of monoprotic indicator dyes as a function of pH: R=([H^+]Rmax+ka,appRmin)/ka,app+[H^+] (1) where ka,app is the apparent dissociation constant of the immobilized dye. A least-squares linear regression was used to determine the parameters Rmin, Rmax and ka,app. The pka,app of the immobilized dye was calculated to be 7.61±0.05 for these conditions. This is in good agreement with the pka,app of HPTS in solution, which was calculated to be 7.72±0.02 under the same conditions.
The modified dye is sensitive over the same range as HPTS. The calibration curve for DHDS was fit to an expression similar to that for monoprotic acids, but for diprotic acids. The second hydroxyl group causes DHD to be sensitive over an extended range with two dissociation constants calculated to be pka1,app=7.03±0.02 and pka1,app=9.05±0.02 under these conditions.

The conditions of series [1]: literature (11); cited from earlier work.
The conditions of series [2]: cited from earlier work; for pKa: literature value.

In the case of `C=C(C)C(=O)Oc1cc(O)c2ccc3c(S(=O)(=O)O)cc(S(=O)(=O)O)c4ccc1c2c34` [MA-HPDS, 6-methacryloyl-8-hydroxy-1,3-pyrene disulfonic acid], the pKa (commonly the pH at which an ionisable group is half protonated) in “physchem” worked out at 7.61 ± 0.05.
Consider `O=S(=O)([O-])c1cc(O)c2ccc3c(S(=O)(=O)[O-])cc(S(=O)(=O)[O-])c4ccc1c2c34.[Na+].[Na+].[Na+]` [HPTS, 8-hydroxy-1,3,6-pyrene trisulphonic acid trisodium salt], for which the toxicity entry in series [1] was “low toxicity”. Moreover, the pKa result in series [2] was “approximately 7.3”; in the series “physchem”, 7.72 ± 0.02.
With `O=C1OC2(c3cc(Cl)c(O)cc3Oc3cc(O)c(Cl)cc32)c2ccccc21` [dichlorofluorescein], the pKa in series [2] was approximately 4.
Consider `O=S(=O)([O-])c1cc(S(=O)(=O)[O-])c2ccc3c(O)cc(O)c4ccc1c2c43.[Na+].[Na+]` [DHDS, 6,8-dihydroxy-1,3-pyrenedisulfonic acid disodium salt], for which, in series [2] (literature value (9)), the “second pKa” value is “approximately 8.5”. Further, in the series “physchem”, the “pka1,app (first dissociation constant)” value turned out to be 7.03±0.02 and the “pka1,app (second printed dissociation constant)” value is recorded as 9.05±0.02.
